Source: patent publication US8916527B2, “Antibiotic macrocycle compounds and methods of manufacture and use thereof” (Optimer Pharmaceuticals, Inc., priority 2007, dated 2014)
Where two headings read alike, the source gives them in different places.

Experiments:
[1] = system: C. difficile ATCC strain 700057; experiment: Effect of fecal material on in vitro activity, microbroth dilution MIC; type: cell-based; conditions: for MIC: Clostridioides difficile
[2] = system: Staphylococcus epidennidis, clinical strain ORG#365; experiment: MIC, microbroth dilution method
[3] = system: Streptococcus pneumoniae, ATCC 49619; experiment: MIC, microbroth dilution method; conditions: ATCC49619
[4] = system: Micromonas (formerly Peptostreptococcus) micros, ATCC 33270; experiment: MIC, agar dilution method; type: cell-based; conditions: Parvimonas micra, ATCC33270; Micromonas micros ATCC 33270
E. faecium = experiment: MIC profiling; conditions: Enterococcus faecium
S. aureus = experiment: MIC profiling; conditions: Staphylococcus aureus
[5] = system: Enterococcus faecium, Vancomycin resistant clinical strain ORG#364; experiment: MIC, microbroth dilution method
[6] = system: Enterococcus faecium, Vancomycin resistant clinical strain ORG#534; experiment: MIC, microbroth dilution method
[7] = system: gram positive bacteria (C. difficile, C. perfringenes, B. longum, F. magna, P. asaccharolyticus, P. anaerobius, M. micros, L. casei); type: cell-based
[8] = system: Streptococcus pyogenes, ATCC 19615; experiment: MIC, microbroth dilution method
[9] = system: Bifidiobacterium longum, ATCC 15707; experiment: MIC, agar dilution method; type: cell-based; conditions: Table 1 gram positive GI flora
physchem = type: physicochemical; conditions: water; read-out: Aqueous solubility
[10] = system: Staphylococcus aureus, ATCC 29213; experiment: MIC, microbroth dilution method
[11] = system: Finegoldia (formerly Peptococcus) magna, ATCC 29328; experiment: MIC, agar dilution method; type: cell-based; conditions: Finegoldia magna ATCC 29328
[12] = system: ORG 83 E. faecalis ATCC 29212; experiment: MIC, aerobic panel, microbroth dilution method; conditions: Enterococcus faecalis, ATCC29212, read-out: Aerobic Panel MIC
[13] = system: Clostridium perfringens, ATCC 13124; experiment: microbe, parasite or virus in culture; type: cell-based; conditions: ATCC13124
[14] = system: ORG 84 E. faecium ATCC 700221 VRE; experiment: MIC, aerobic panel, microbroth dilution method; conditions: Enterococcus faecium, read-out: Aerobic Panel MIC
[15] = system: Lactobacillus. casei, ATCC 393; experiment: MIC, agar dilution method; type: cell-based; conditions: Lacticaseibacillus casei, ATCC393
[16] = system: Enterococcus faecium, ATCC 19434; experiment: MIC, microbroth dilution method
[17] = system: Staphylococcus aureus, Methicilin resistant clinical strain ORG#578; experiment: MIC, microbroth dilution method
[18] = system: Lactobacillus acidophilus, ATCC 4356; experiment: MIC, agar dilution method; type: cell-based; conditions: ATCC4356
[19] = system: ORG 150 B. fragilis 25285; experiment: MIC, anaerobic panel, agar dilution method; type: cell-based; conditions: Bacteroides fragilis, Table 3, read-out: MIC, panel of anaerobic bacteria
[20] = system: Lactobacillus rhamnosus, ATCC 7496; experiment: MIC, agar dilution method; type: cell-based
[21] = system: Staphylococcus aureus, ATCC 33591 (Methicilin resistant); experiment: MIC, microbroth dilution method
[22] = in vivo, po
[23] = system: Peptostreptococcus anaerobius, ATCC 27337; experiment: MIC, agar dilution method; type: cell-based; conditions: ATCC27337
[24] = system: Clostridium difficile, ATCC 43255; experiment: MIC, agar dilution method; type: cell-based; conditions: Clostridioides difficile, ATCC43255
Procedure: (§1) Agar Dilution Method: (1)
(§2) This method was used for anaerobic organisms (Bacteroides, Clostridium, Bifidiobacteria, Prevotella, Fusobacterium, Peptococcus, Peptostreptococcus, Veillonella) and microaerophilic Lactobacillus spp, all of which were purchased form American Type Culture Collection (ATCC):
(§3) 1. Two fold dilutions of compounds were made in Brucella agar supplemented with hemin, vitamin K and 5% laked sheep blood to achieve a final concentration range from 0.016 μg/mL to 16 μg/mL.
(§4) 3. Plates were incubated in an anaerobic chamber at 35° C. for 48 hours. For the Lactobacillus strains, Mueller Hinton Agar and an incubation atmosphere of 5% CO2 were used.
(§5) 4. The lowest concentration of an antibiotic showing no growth or marked reduction in growth was read as the MIC.

[25] = system: Clostridium difficile, ATCC 700057; experiment: MIC, agar dilution method; type: cell-based; conditions: Clostridioides difficile, ATCC700057
Procedure: as §1, §2, §3, §4, §5

[26] = system: Enterococcus faecium, Vancomycin resistant clinical strain ORG#360; experiment: MIC, microbroth dilution method
[27] = system: ORG 99 S. epidermidis ATCC 12228; experiment: MIC, aerobic panel, microbroth dilution method; conditions: Staphylococcus epidermidis, ATCC12228, read-out: Aerobic Panel MIC
[28] = system: Peptoniphilus (formerly Peptococcus) asaccharolyticus, ATCC 29743; experiment: MIC, agar dilution method; type: cell-based; conditions: Peptoniphilus asaccharolyticus ATCC 29743

Question: With `CN[C@H](CC(C)C)C(=O)N[C@H]1C(=O)N[C@@H](CC(N)=O)C(=O)N[C@H]2C(=O)N[C@H]3C(=O)N[C@H](C(=O)N[C@H](C(=O)O)c4cc(O)cc(O)c4-c4cc3ccc4O)[C@H](O)c3ccc(c(Cl)c3)Oc3cc2cc(c3O[C@@H]2O[C@H](CO)[C@@H](O)[C@H](O)[C@H]2O[C@H]2C[C@](C)(N)[C@H](O)[C@H](C)O2)Oc2ccc(cc2Cl)[C@H]1O` [Vancomycin, reference compound] as the compound, how does the “Fold increase in MIC” value [1] read?
Answer: 4x

Question: And the “fold increase in MIC values in the presence of 5% fecal material” value [1]?
Answer: four fold

Question: What about the MIC ([1]; ATCC700057, read-out: MIC in the presence of 5% fecal material) of the same compound?
Answer: 8 µg/mL

Question: Which results are given for `CCc1c(Cl)c(O)c(Cl)c(O)c1C(=O)O[C@H]1[C@H](O)[C@H](OC)[C@H](OC/C2=C\C=C\C[C@H](O)/C(C)=C/[C@H](CC)[C@@H](O[C@@H]3OC(C)(C)[C@@H](O)[C@H](O)[C@@H]3O)/C(C)=C/C(C)=C/C[C@@H]([C@@H](C)O)OC2=O)O[C@@H]1C` [Formula II]?
Answer: MIC [2]: 64 µg/mL; MIC [3]: > 64 µg/mL; MIC [4]: 1 µg/mL; MIC (E. faecium): > 16 µg/mL; MIC (S. aureus): > 16 µg/mL; MIC [5]: 64 µg/mL; MIC [6]: > 64 µg/mL; MIC values relative to those of OPT-80 [7]: four to sixteen fold greater; Fold increase in MIC ([1]; Brucella broth with feces vs Brucella broth only, C. difficile ATCC 700057): 4x; activity against C. difficile compared with vancomycin ([1]; C. difficile): as active as vancomycin; fold increase in MIC values in the presence of 5% fecal material ([1]; C. difficile ATCC strain 700057): four fold; MIC ([1]; ATCC700057, C. difficile ATCC strain 700057, read-out: MIC in the presence of 5% fecal material): 4 µg/mL; MIC ([1]; ATCC700057, Diluent Brucella broth only, C. difficile ATCC 700057, read-out: MIC): 1 µg/mL; MIC ([1]; ATCC700057, Diluent Brucella broth with feces (5% fecal slurry), C. difficile ATCC 700057, read-out: MIC): 4 µg/mL; MIC ([8]; ATCC19615): > 64 µg/mL; MIC ([8]; ATCC19615, read-out: Aerobic Panel MIC): > 32 µg/mL; MIC [9]: 1 µg/mL; solubility (physchem): ~300 mg/mL; MIC ([10]; ATCC29213): > 64 µg/mL; MIC ([10]; ATCC29213 / MSSA, read-out: Aerobic Panel MIC): > 64 µg/mL; MIC [11]: 8 µg/mL; MIC [12]: 16 to 64 µg/mL; MIC [13]: 1 µg/mL; MIC [14]: > 32 µg/mL; MIC [15]: 8 µg/mL; MIC ([16]; ATCC19434): > 64 µg/mL; MIC ([16]; ATCC19434, read-out: Aerobic Panel MIC): > 64 µg/mL; MIC [17]: > 64 µg/mL; MIC [18]: > 16 µg/mL; MIC [19]: > 16 µg/mL; MIC ([20]; Lacticaseibacillus rhamnosus, ATCC7496, L. rhamnosus, read-out: MIC): > 16 µg/mL; MIC ([20]; Lactobacillus rhamnosus ATCC 7496): >16 µg/mL; MIC ([21]; ATCC33591): > 64 µg/mL; MIC ([21]; ATCC33591 / MRSA, read-out: Aerobic Panel MIC): > 64 µg/mL; levels detected in plasma [22]: most of which fell below the limit of quantification; MIC [23]: 0.25 µg/mL; MIC [24]: 4 µg/mL; MIC ([25]; Clostridium difficile ATCC 700057, Table 1 gram positive GI flora, read-out: MIC): 2 µg/mL; MIC ([25]; ORG 830 C. difficile ATCC 700057, Table 3, read-out: MIC, panel of anaerobic bacteria): 0.5 to 1 µg/mL; MIC [26]: > 64 µg/mL; MIC [27]: > 32 µg/mL; MIC [28]: 4 µg/mL
